Activity calls are given as the source filed them. The calls are words filed in the database; no cut-off is given here.
Columns and labels:
Lipid bilayer [1] = experiment: Binding affinity to POPG:POPC:lysyl-DOPG:7MC-POPE unilamellar lipid vesicle with >30 mol% of lysyl-DOPG at 0.5 uM by FRET assay
Lipid bilayer [2] = experiment: Binding affinity to POPG:POPC:lysyl-DOPG:7MC-POPE unilamellar lipid vesicle with <30 mol% of lysyl-DOPG at 0.5 uM by FRET assay

## H-ALYKKWKKKLLKSLKRLG-OH
Lipid bilayer [1]
  Activity: inactive
Lipid bilayer [2]
  Activity: Active

Source: ChEMBL document CHEMBL1687772, “Lysyl-phosphatidylglycerol attenuates membrane perturbation rather than surface association of the cationic antimicrobial peptide 6W-RP-1 in a model membrane system: implications for daptomycin resistance” (Antimicrob Agents Chemother, 2010)
